Measured values as given in patent US7718808B2, “Thiazole derivatives” (Kyowa Hakko Kirin Co., Ltd., priority 2003, dated 2010).

Compound O=C(Nc1nc(-c2ccco2)c(C(=O)c2ccccn2)s1)OC1CCCC1 [Compound 252, Cyclopentyl N-[4-(2-furyl)-5-(pyridin-2-ylcarbonyl)thiazol-2-yl]carbamate] has a melting point of 162 to 163 °C. O=C(Nc1nc(-c2ccco2)c(C(=O)C2CCOCC2)s1)c1ccc(OC(F)(F)F)cc1 [Compound 477, N-[4-(2-Furyl)-5-(tetrahydropyran-4-ylcarbonyl)thiazol-2-yl]-4-(trifluoromethoxy)benzamide] showed a melting point of 177 to 180 °C. Compound COc1cccc(C(=O)Nc2nc(-c3ccco3)c(C(=O)C3CCC(=O)CC3)s2)c1 [Compound 451, N-[4-(2-Furyl)-5-(4-oxocyclohexylcarbonyl)thiazol-2-yl]-3-methoxybenzamide] has a melting point of 176 to 183 °C. In the case of O=C(Nc1nc(-c2ccco2)c(C(=O)C2CCC2)s1)c1ccncc1 [Compound 424, N-[5-(Cyclobutylcarbonyl)-4-(2-furyl)thiazol-2-yl]pyridine-4-carboxamide], the melting point is reported as 227 to 235 °C (dec.). In the case of O=C(Nc1nc(-c2ccco2)c(C(=O)c2ccnc(N3CCOCC3)c2)s1)c1ccncc1 [Compound 339, N-[4-(2-Furyl)-5-(2-morpholinopyridin-4-ylcarbonyl)thiazol-2-yl]pyridine-4-carboxamide], the melting point is reported as 270 to 273 °C. For Cc1csc(C(=O)c2sc(NC(=O)c3ccncc3)nc2-c2ccco2)n1 [Compound 350, N-[4-(2-Furyl)-5-(4-methylthiazol-2-ylcarbonyl)thiazol-2-yl]pyridine-4-carboxamide], the melting point was 250 to 255 °C. CC(C)(C)C(=O)c1sc(NC(=O)c2ccncc2)nc1-c1ccco1 [Compound 400, N-[4-(2-Furyl)-5-pivaloylthiazol-2-yl]pyridine-4-carboxamide] gave a melting point of 240 to 245 °C. O=C(C=Cc1ccccc1)Nc1nc(-c2ccco2)c(C(=O)C2CCOCC2)s1 [Compound 528, N-[4-(2-Furyl)-5-(tetrahydropyran-4-ylcarbonyl)thiazol-2-yl]-3-phenylacrylamide] gave a melting point of 253 to 256 °C. Compound O=C(Nc1nc(-c2ccco2)c(C(=O)C2CCOCC2)s1)c1cnccn1 [Compound 509, N-[4-(2-Furyl)-5-(tetrahydropyran-4-ylcarbonyl)thiazol-2-yl]pyrazine-2-carboxamide] has a melting point of 200 to 205 °C. O=C(CN1CCN(c2ccccc2)CC1)Nc1nc(-c2ccco2)c(C(=O)c2ccccn2)s1 [Compound 276, N-[4-(2-Furyl)-5-(pyridin-2-ylcarbonyl)thiazol-2-yl]-2-(4-phenylpiperazin-1-yl)acetamide] gave a melting point of 203 to 204 °C. Work on Cc1ncccc1C(=O)Nc1nc(-c2ccco2)c(C(=O)c2ccccn2)s1 [Compound 221, N-[4-(2-Furyl)-5-(pyridin-2-ylcarbonyl)thiazol-2-yl]-2-methylpyridine-3-carboxamide] yielded a melting point of 186 to 187 °C. For N#Cc1ccc(C(=O)Nc2nc(-c3ccco3)c(C(=O)C3CCOCC3)s2)cc1 [Compound 474, 4-Cyano-N-[4-(2-furyl)-5-(tetrahydropyran-4-ylcarbonyl)thiazol-2-yl]benzamide], the melting point was 231 to 234 °C. CC(C)C(=O)c1sc(NC(=O)C2CC2)nc1-c1ccco1 [Compound 394, N-[4-(2-Furyl)-5-isobutyrylthiazol-2-yl]cyclopropane carboxamide] showed a melting point of 178 to 182 °C. With O=C(CN1CCC(N2CCCC2)CC1)Nc1nc(-c2ccco2)c(C(=O)C2CCOCC2)s1 [Compound 551, N-[4-(2-Furyl)-5-(tetrahydropyran-4-ylcarbonyl)thiazol-2-yl]-2-[4-(1-pyrrolidinyl)piperidino]acetamide] the melting point was 183 to 184 °C. In the case of O=C(c1sc(NC(=O)N2CCOCC2)nc1-c1ccco1)C1CCCC1 [Compound 435, N-[5-(Cyclopentylcarbonyl)-4-(2-furyl)thiazol-2-yl]-morpholine-4-carboxamide], the melting point is reported as 108 to 110 °C. In the case of O=C(Nc1nc(-c2ccco2)c(C(=O)C2CC2)s1)c1ccncc1 [Compound 417, N-[5-(Cyclopropylcarbonyl)-4-(2-furyl)thiazol-2-yl]pyridine-4-carboxamide], the melting point is reported as 225 to 230 °C (dec.). In the case of Cc1cc(C(=O)c2sc(NC(=O)c3ccncc3)nc2-c2ccco2)ccn1 [Compound 332, N-[4-(2-Furyl)-5-(2-methylpyridin-4-ylcarbonyl)thiazol-2-yl]pyridine-4-carboxamide], the melting point is reported as 223 to 225 °C. O=C(Nc1nc(-c2ccco2)c(C(=O)C2CCOCC2)s1)c1ccccc1F [Compound 466, 2-Fluoro-N-[4-(2-furyl)-5-(tetrahydropyran-4-ylcarbonyl)thiazol-2-yl]benzamide] showed a melting point of 172 to 176 °C. With O=C(CC1CCOCC1)Nc1nc(-c2ccco2)c(C(=O)C2CCOCC2)s1 [Compound 525, N-[4-(2-Furyl)-5-(tetrahydropyran-4-ylcarbonyl)thiazol-2-yl]-2-(tetrahydropyran-4-yl)acetamide] the melting point was 206 to 209 °C. O=C(Nc1nc(-c2ccco2)c(C(=O)c2ccncn2)s1)c1ccncc1 [Compound 375, N-[4-(2-Furyl)-5-(pyrimidin-4-ylcarbonyl)thiazol-2-yl]pyridine-4-carboxamide] showed a melting point greater than 300 °C. For COCCN(C)CC(=O)Nc1nc(-c2ccco2)c(C(=O)C2CCOCC2)s1 [Compound 534, N-[4-(2-Furyl)-5-(tetrahydropyran-4-ylcarbonyl)thiazol-2-yl]-2-[N-(2-methoxyethyl)-N-methylamino]acetamide], the melting point was 103 to 105 °C. In the case of O=C(Nc1nc(-c2ccco2)c(C(=O)c2ccn(Cc3ccccc3)c2)s1)c1ccncc1 [Compound 356, N-[5-(1-Benzylpyrrol-3-ylcarbonyl)-4-(2-furyl)thiazol-2-yl]pyridine-4-carboxamide], the melting point is reported as 175 to 178 °C. Work on O=C(Nc1nc(-c2ccco2)c(C(=O)C2CCOCC2)s1)c1ccc(CN2CCOCC2)cc1 [Compound 482, N-[4-(2-Furyl)-5-(tetrahydropyran-4-ylcarbonyl)thiazol-2-yl]-4-(morpholinomethyl)benzamide] yielded a melting point of 92 to 96 °C. For COc1ccc(OC)c(C(=O)Nc2nc(-c3ccco3)c(C(=O)C3CCOCC3)s2)c1 [Compound 485, N-[4-(2-Furyl)-5-(tetrahydropyran-4-ylcarbonyl)thiazol-2-yl]-2,5-dimethoxybenzamide], the melting point was 107 to 110 °C. O=C(Nc1nc(-c2ccoc2)c(C(=O)C2CCOCC2)s1)c1ccc(Cl)nc1 [Compound 612, 2-Chloro-N-[4-(3-furyl)-5-(tetrahydropyran-4-ylcarbonyl)thiazol-2-yl]pyridine-5-carboxamide] gave a melting point of 237 to 239 °C. For O=C(Nc1nc(-c2ccco2)c(-c2ccncc2)s1)c1ccn(Cc2ccccc2)c(=O)c1 [Compound 113, 1-Benzyl-N-[4-(2-furyl)-5-(4-pyridyl)thiazol-2-yl]-2-oxo-1,2-dihydropyridine-4-carboxamide], the melting point was 244 to 248 °C. With CC(=O)N1CCN(CC(=O)Nc2nc(-c3ccco3)c(C(=O)c3ccccn3)s2)CC1 [Compound 275, 2-(4-Acetylpiperazin-1-yl)-N-[4-(2-furyl)-5-(pyridin-2-ylcarbonyl)thiazol-2-yl]acetamide] the melting point was 170 to 171 °C. With COc1ccc(C(=O)c2sc(NC(=O)c3ccncc3)nc2-c2ccco2)cn1 [Compound 319, N-[4-(2-Furyl)-5-(2-methoxypyridin-5-ylcarbonyl)thiazol-2-yl]pyridine-4-carboxamide] the melting point was 246 to 257 °C (dec.). In the case of O=C(CN1CCC(N2CCOCC2)CC1)Nc1nc(-c2ccco2)c(C(=O)C2CCOCC2)s1 [Compound 553, N-[4-(2-Furyl)-5-(tetrahydropyran-4-ylcarbonyl)thiazol-2-yl]-2-(4-morpholinopiperidino)acetamide], the melting point is reported as 193 to 195 °C. With COc1ccc(C(=O)Nc2nc(-c3ccco3)c(C(=O)C3CCOCC3)s2)cc1 [Compound 463, N-[4-(2-Furyl)-5-(tetrahydropyran-4-ylcarbonyl)thiazol-2-yl]-4-methoxybenzamide] the melting point was 184 to 188 °C. O=C(Nc1nc(-c2ccco2)c(C(=O)c2ccccn2)s1)c1cc(Cl)nc(Cl)c1 [Compound 216, 2,6-Dichloro-N-[4-(2-furyl)-5-(pyridin-2-ylcarbonyl)thiazol-2-yl]pyridine-4-carboxamide] gave a melting point of 254 to 258 °C. Work on N#Cc1ccc(C(=O)Nc2nc(-c3ccco3)c(C(=O)C3CCC(=O)CC3)s2)cc1 [Compound 452, 4-Cyano-N-[4-(2-furyl)-5-(4-oxocyclohexylcarbonyl)thiazol-2-yl]benzamide] yielded a melting point of 211 to 212 °C. Compound COCCNC(=O)Nc1nc(-c2ccco2)c(C(=O)c2ccccn2)s1 [Compound 260, N-[4-(2-Furyl)-5-(pyridin-2-ylcarbonyl)thiazol-2-yl]-N′-(2-methoxyethyl)urea] has a melting point of 150 to 151 °C. For Cn1ccc(C(=O)c2sc(NC(=O)c3ccncc3)nc2-c2ccco2)cc1=O [Compound 367, N-[4-(2-Furyl)-5-(1-methyl-2-oxo-1,2-dihydropyridin-4-ylcarbonyl)thiazol-2-yl]pyridine-4-carboxamide], the melting point was 243 to 255 °C (dec.). For CC(C)C(=O)c1sc(NC(=O)c2ccncc2)nc1-c1ccco1 [Compound 393, N-[4-(2-Furyl)-5-isobutyrylthiazol-2-yl]pyridine-4-carboxamide], the melting point was 179 to 182 °C. O=C(Nc1nc(-c2ccco2)c(C(=O)c2cccnn2)s1)c1ccncc1 [Compound 376, N-[4-(2-Furyl)-5-(pyridazin-3-ylcarbonyl)thiazol-2-yl]pyridine-4-carboxamide] gave a melting point of 280 to 281 °C. For CC1CCN(CC(=O)Nc2nc(-c3ccco3)c(C(=O)c3ccccn3)s2)CC1 [Compound 266, N-[4-(2-Furyl)-5-(pyridin-2-ylcarbonyl)thiazol-2-yl]-2-(4-methylpiperidino)acetamide], the melting point was 104 to 106 °C. In the case of Cn1cc(C(=O)Nc2nc(-c3ccco3)c(C(=O)c3ccccc3)s2)ccc1=O [Compound 150, N-[5-Benzoyl-4-(2-furyl)thiazol-2-yl]-1-methyl-2-oxo-1,2-dihydropyridine-5-carboxamide], the melting point is reported as 220 to 225 °C. Compound O=C(Nc1nc(-c2ccoc2)c(C(=O)C2CCOCC2)s1)C1CC1 [Compound 611, N-[4-(3-Furyl)-5-(tetrahydropyran-4-ylcarbonyl)thiazol-2-yl]cyclopropanecarboxamide] has a melting point of 231 to 232 °C.
